Assays:
hTRPA1 [1] = target: T1, hTRPA1 (Homo sapiens, UniProt O75762); assay: Outside-out patch recordings, single channel activity, hTRPA1-expressing HEK293 cells; format: cell-based
Protocol: Inside-Out and Outside-Out Patch Clamp Recordings on HEK293 Cells. For inside-out recordings in TRPA1-expressing HEK293 cells, pipette resistance was 8-10 MΩ and, the internal solution contains: 126 mM K-gluconate, 10 mM NaCl, 1 mM MgCl2, 10 mM EGTA, 10 mM HEPES, and 2 Na-ATP (adjusted to pH 7.3 with KOH, osmolarity to 295-300 mOsm). The recordings were performed at room temperature in a bath solution (intracellular side) of 140 mM NaCl, 10 mM EGTA, 5 mM KCl, 2 mM CaCl2, 1 mM MgCl2, 10 mM HEPES, 10 mM glucose, adjusted to pH 7.4 with NaOH and osmolarity to 300-310 mOsm (Park et al., Neuron 2014, 82, 47-54). For comparison, outside-out recordings were also performed in TRPA1-expressing HEK293 cells in an extracellular solution of 140 mM NaCl, 5 mM KCl, 2 mM MgCl2, 10 mM HEPES, and 10 mM glucose (adjusted to pH 7.4 with NaOH and osmolarity to 300-310 mOsm). The internal solution contains 140 mM CsCl, 10 mM EGTA, 10 mM HEPES, and mM 2 Mg-ATP, adjusted to pH 7.3 with CsOH. Currents were low-pass filtered at 2 kHz and digitized at a sampling rate of 10 kHz with Digidata-1440A (Axon Instruments). The pClamp10 (Axon Instruments) software was used during experiments and data analysis. Opening and closing transitions of single channels were detected by using 50% of the threshold criterion. All events were carefully checked before the analysis. When superimposed openings were observed, the number of channels in the patch was estimated from the maximal number of superimposed openings. The single-channel open probability (Po) was determined using the following equation: Po=T′/T, where T′ is the total open time for a patch over time T.

CTCL mice = assay: Mouse CTCL xenograft model of chronic itch; format: in vivo; details: given 20 days after Myla cell inoculation; for effect on CTCL-evoked chronic itch: hsa-miR-711 inhibitor 100 μM, HC030031 200 μM, A967079 50 μM, peptides 2 mM
Protocol: Mouse CTCL Xenograft Model of Chronic Itch. We developed a murine xenograft model of cutaneous T cell lymphoma (CTCL) using immune-deficient mice (NOD.CB17-Prkdcscid, 8-10 weeks old, male). CD4^+ MyLa cell line was purchased from Sigma (Ca #95051032). The cell line was established from a plaque biopsy of a person with mycosis fungoides stage II by inclusion of IL-2 and IL-4 in the culture medium. CTCL was generated via intradermal injection of CD4^+ Myla cells (1×10^5 cells/μl, 100 μL) on the nape of the neck. Tumor growth was assessed for 40 days by measurements of tumor diameters.
Behavioral Assessment for Scratching (Itch) and Wiping (Pain). Mice were shaved on the cheek or nape after a brief anesthesia with isoflurane. Before experiments, mice were habituated in small plastic chambers (14×18×12 cm) daily for two days. The room temperature and humidity remained stable for all the experiments. […] After the injection, the number of scratches in 60 min was counted. A scratch was counted when a mouse lifted its hind paw to scratch the shaved region and returned the paw to the floor or to the mouth. A bout of wiping was defined as a continuous wiping movement with a forepaw directing at the area of the injection area (Shimada and LaMotte, Pain 2008, 139, 681-687). Scratching and wiping behavior was videoed for 30 min or 60 min using Sony HDR-CX610 camera. The video was subsequently played back offline and the numbers of scratches and wipes were quantified in a blinded manner.
Generation of Myla Stable Cell Line Expressing miR-711 Inhibitor. CD4^+ Myla cells were plated at a density of 2×10^5 cells/mL in 2 mL culture media in 6-well plates. For each well, 20 μL of the MISSION Lenti microRNA Inhibitor (hsa-miR-711) lentivirus (Sigma) with a titer of 2.6×10^7 Tu/mL were added. Cell mixtures were incubated at 37° C. for 48 hr, washed with PBS three times, and re-suspended in fresh culture media, and 24 hr later, 1 μg/mL puromycin was added to the cells to select stably transduced cell populations. We tried to grow and passage the cells as much as necessary (usually 3 days) and maintained selection pressure by keeping 1 μg/mL puromycin in the medium. After 4 weeks, a large number of the cells were killed; the remaining cells retained the expression of the plasmid, which stably integrates into the genome of the targeted cells. These cells were used for inoculation to generate the CTCL model for testing the effects of miR-711 inhibitor on chronic itch and tumor growth.

hTRPA1 [2] = target: T1, hTRPA1; assay: RNA pull-down assay and immunoblotting; format: binding
Protocol: RNA Pull-Down Assay and Immunoblotting. hTRPA1-expressing HEK293 cells of equal amount (5×10^6) were plated onto 60 mm dishes, and 24 hr later, these cells were incubated with biotin-conjugated miR-711 or miR-711 (m6) in extracellular solution containing 140 mM NaCl, 5 mM KCl, 2 mM CaCl2, 1 mM MgCl2, 10 mM HEPES, and 10 mM glucose, adjusted to pH 7.4 for 15 min at 37° C. with 5% CO2. For crosslinking, 1% formaldehyde (vol/vol) was added at 37° C. for 10 min, then 12.5% glycine was applied to stop crosslinking by 5 min incubation at room temperature. Then the cells were collected and sonicated with ultrosonic probe sonicator (80% output, 5 s on and 10 s off) in 1 mL lysis buffer (1% Triton X-100, 50 mM Tris-HCl, 150 mM NaCl, 5 mM EDTA, pH7.4) on ice for 2 min. We then centrifuged the lysate at 13,000 rpm for 10 min at 4° C. and took 50 μL supernatant as lysate control. The remaining supernatant was added 20 μL streptadvilin agrose beads and incubated overnight. The pellets were collected after centrifuge at 6000 rmp for 30 s. For competing assay, miR-711 (10-50 μM) or mutant miR-711 (m6, 10-50 μM) were added 15 min before the incubation with biotin-conjugated miR-711 (10 μM). For immunoblotting, the lysates or beads were incubated in SDS-PAGE loading buffer for 30 min at 50° C., and supernatant was collected after centrifugation at 13000 rpm and decrosslink at 99° C. for 20 min. The samples were separated on an SDS-PAGE gel, transferred, and probed with TRPA1 antibody (1:1000; Alomone labs). The immunoreactive bands were detected with horseradish peroxidase-conjugated secondary antibody, visualized with enhanced chemiluminescence (Thermo scientific, Pittsburgh, Pa.), and quantified with Image-Pro Plus software (Media Cybernetics, Bethesda, Md.). Each experiment was repeated at least three times.

T1 sequence (O75762 whole entry): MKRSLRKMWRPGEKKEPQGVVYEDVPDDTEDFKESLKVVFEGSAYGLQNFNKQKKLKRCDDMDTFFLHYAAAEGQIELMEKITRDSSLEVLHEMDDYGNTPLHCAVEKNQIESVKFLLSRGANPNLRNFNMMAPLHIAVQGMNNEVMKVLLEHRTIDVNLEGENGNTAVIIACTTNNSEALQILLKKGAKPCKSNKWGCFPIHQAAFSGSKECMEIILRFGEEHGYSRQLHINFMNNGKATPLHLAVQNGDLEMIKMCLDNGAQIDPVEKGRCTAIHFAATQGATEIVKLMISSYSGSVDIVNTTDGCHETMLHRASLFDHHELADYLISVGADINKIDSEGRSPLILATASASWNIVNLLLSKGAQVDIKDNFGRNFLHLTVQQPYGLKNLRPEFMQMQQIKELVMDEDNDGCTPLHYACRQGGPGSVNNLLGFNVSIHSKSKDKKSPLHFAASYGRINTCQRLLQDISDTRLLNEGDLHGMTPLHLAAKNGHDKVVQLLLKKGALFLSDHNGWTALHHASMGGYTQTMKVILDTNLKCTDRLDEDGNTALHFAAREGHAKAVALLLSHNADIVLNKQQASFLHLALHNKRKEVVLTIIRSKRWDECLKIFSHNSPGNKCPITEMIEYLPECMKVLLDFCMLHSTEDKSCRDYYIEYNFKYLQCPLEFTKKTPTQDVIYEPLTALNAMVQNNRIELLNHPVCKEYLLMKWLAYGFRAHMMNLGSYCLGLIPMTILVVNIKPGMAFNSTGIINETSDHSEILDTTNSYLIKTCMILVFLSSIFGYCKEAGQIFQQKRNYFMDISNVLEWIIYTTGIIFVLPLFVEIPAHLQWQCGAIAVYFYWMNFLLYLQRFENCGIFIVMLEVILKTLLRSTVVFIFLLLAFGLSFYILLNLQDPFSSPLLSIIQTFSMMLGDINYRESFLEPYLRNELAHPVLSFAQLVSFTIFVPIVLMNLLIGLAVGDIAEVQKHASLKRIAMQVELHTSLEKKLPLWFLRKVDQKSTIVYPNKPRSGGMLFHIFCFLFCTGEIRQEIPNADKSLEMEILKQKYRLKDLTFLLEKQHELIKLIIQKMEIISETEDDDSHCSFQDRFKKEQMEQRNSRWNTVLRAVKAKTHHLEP

| Molecule | block of miR-711-induced single channel activity (hTRPA1 [1]; outside-out patch) | effect on CTCL-evoked chronic itch (CTCL mice) | disruption of the miR-711/TRPA1 interaction (hTRPA1 [2]; RNA pull-down) | duration of reduction of CTCL-evoked chronic itch (CTCL mice; 2 mM) | single-channel opening events, extracellular surface (hTRPA1 [1]; bath application, miR-711 10 μM, AITC 50 μM, held at −60 mV) | duration of single channel opening (average open time) (hTRPA1 [1]; miR-711 10 μM versus AITC 50 μM) | single channel conductance (hTRPA1 [1]; mmu-miR-711 versus AITC) | competition with binding of biotin-labeled miR-711 to TRPA1 (hTRPA1 [2]; 10-50 μM added 15 min before biotin-conjugated miR-711 (10 μM)) |
| --- | --- | --- | --- | --- | --- | --- | --- | --- |
| CCC(=N\O)/C(C)=C/c1ccc(F)cc1 [A967079, (1E,3E)-1-(4-Fluorophenyl)-2-methyl-1-pentene-3-one oxime] | completely blocked | suppressed |  |  |  |  |  |  |
| NH2-FRNELAYPVLTFGQL-COOH (H-FRNELAYPVLTFGQL-OH) [blocking peptide] |  | effectively reduced | disrupted the miR-711/TRPA1 interaction | more than 5 hr |  |  |  |  |
| miR-711: mmu-miR-711: gggacccggggagagauguaag (SEQ ID NO: 5) (GGGACCCGGGGAGAGAUGUAAG; chemistry not given here) |  |  |  |  | elicited single-channel opening events | significantly shorter | not significant | inhibited the binding |

Source: patent US20210283163A1, “COMPOSITIONS AND METHODS FOR THE TREATMENT OF ACUTE AND CHRONIC PRURITIS” (Duke University, priority 2018, published 2021)
